{
  "source": "paper PMC11740379",
  "about": "“Novel Enyne-Modified 1,4-Thiazepines as Epidermal Growth Factor Receptor Inhibitors: Anticancer and Computational Studies” (ACS Omega, 2024)",
  "format_in_all_cases": "cell-based, human",
  "key": {"MCF-7 cells": {"system": "MCF-7 cells", "test": "XTT cytotoxicity assay, breast cancer cells", "protocol": "(§1) The cells were cultured in RPMI medium (Sigma) supplemented with 10% heat-inactivated fetal bovine serum, 1% penicillin, and 1% L-glutamine, and incubated in a humidified CO2 atmosphere at 37 °C.\n(§2) To evaluate the cytotoxic effects of TZEPs, which were dissolved in dimethyl sulfoxide (DMSO), the XTT assay (2,3-bis(2-methoxy-4-nitro-5-sulfophenyl)-2H-tetrazolium-5-carboxanilide) was employed. […] Following the incubation, 100 μL of XTT was added to each well, and the plates were incubated for an additional 4 h at 37 °C. The resulting color change was measured by recording the absorbance at 570 nm using a microplate reader (Tecan).\n(§3) Conversely, an SI less than 1 means the drug is more toxic to normal cells than to target cells, which is undesirable in therapeutic contexts."}, "Caspase-8 mRNA": {"system": "Caspase-8 mRNA", "test": "qRT-PCR of apoptosis-related mRNA", "conditions": "72 h, vs untreated control", "protocol": "(§4) To measure the mRNA expression levels of apoptosis-related genes B-cell lymphoma 2 (Bcl-2), Bcl-2-associated X protein (Bax), Cyclin-dependent kinase 2 (CDK2), and Cyclin E, total mRNA was extracted from cells treated with compound 6f using Trizol reagent (Sigma). cDNA was synthesized from the total mRNA using the Qiagen cDNA synthesis kit according to the manufacturer’s instructions. The following primers, each at a concentration of 350 nM, were employed: Bcl-2; forward ([…]), reverse ([…]); Bax; forward ([…]), reverse ([…]); Caspase-8; forward ([…]), reverse ([…]); Caspase-9; forward (TGTCTACGGCACAGATGGA), reverse (GGACTCGTCTTCAGGGGA); EGFRWT: forward ([…]), reverse (CCTGTGCCAGGGACCTTAC−); EGFRT790 M forward ([…]), reverse ([…]); human GAPDH; forward ([…]), reverse (AGATGGTGATGGGCTTCCC). The PCR mix was prepared with 1× buffer containing 0.2 mM dNTPs, 1.6 mM MgCl2, […] of each primer set, cDNA, and 0.25 U Taq polymerase. The PCR conditions were as follows: an initial denaturation at 95 °C for 60 s, followed by 50 cycles of 95 °C for 15 s, 60 °C for 15 s, and 72 °C for 60 s. The cycle threshold (CT) for each replicate was normalized to the average CT of the endogenous control (GAPDH). The relative quantification of gene expression was calculated using the comparative CT method.[17]"}, "Bax mRNA": {"system": "Bax mRNA", "test": "qRT-PCR of apoptosis-related mRNA", "conditions": "72 h, vs untreated control", "protocol": "as §4"}, "Caspase-9 mRNA": {"system": "Caspase-9 mRNA", "test": "qRT-PCR of apoptosis-related mRNA", "conditions": "72 h, vs untreated control", "protocol": "as §4"}, "Bcl-2 mRNA": {"system": "Bcl-2 mRNA", "test": "qRT-PCR of apoptosis-related mRNA", "conditions": "72 h, vs untreated control", "protocol": "as §4"}, "PC-3 cells": {"system": "PC-3 cells", "test": "XTT cytotoxicity assay, prostate cancer cells", "protocol": "as §1, §2, §3"}, "EGFRWT mRNA": {"system": "EGFRWT mRNA", "test": "qRT-PCR of EGFR mRNA expression", "conditions": "vs untreated control", "protocol": "as §4"}},
  "note": "Where two headings read alike, the source gives them in different places.",
  "data": [
    {"smiles": "Cc1cc(C2=NCC(=CC#Cc3ccccc3)SC(c3ccc(Cl)cc3)=C2)ccc1F", "note": "[TZEP7]", "values": [
      {"measurement": "viability at 0.1 µM", "setting": "MCF-7 cells; Homo sapiens, MCF7, MCF-7, 0.1 μM, read-out: cell viability", "value": 68, "unit": "%"},
      {"measurement": "viability at 1 µM", "setting": "MCF-7 cells; Homo sapiens, MCF7, MCF-7, 1 μM, read-out: cell viability", "value": 54, "unit": "%"},
      {"measurement": "viability at 10 µM", "setting": "MCF-7 cells; Homo sapiens, MCF7, MCF-7, 10 μM, read-out: cell viability", "value": 44, "unit": "%"},
      {"measurement": "viability at 50 µM", "setting": "MCF-7 cells; Homo sapiens, MCF7, MCF-7, 50 μM, read-out: cell viability", "value": 28, "unit": "%"},
      {"measurement": "viability at 100 µM", "setting": "MCF-7 cells; Homo sapiens, MCF7, MCF-7, 100 μM, read-out: cell viability", "value": 18, "unit": "%"},
      {"measurement": "IC50", "setting": "MCF-7 cells; Homo sapiens, MCF7, XTT assay, exposure time of the IC50 not stated (24, 48, 72 h tested), read-out: IC50, breast cancer (MCF-7)", "value": "14.1 ± 2.1", "unit": "µM"},
      {"measurement": "IC50", "setting": "MCF-7 cells; Homo sapiens, MCF7, dose–response curve of Figure 2, read-out: IC50, MCF-7, dose–response curve", "value": 14.2, "unit": "µM"},
      {"measurement": "Selectivity index (SI), breast cancer (MCF-7)", "setting": "MCF-7 cells; versus normal cells HEK-293", "value": 3.85},
      {"measurement": "induction of Caspase-8 mRNA level", "setting": "Caspase-8 mRNA; A549, IC50 concentration", "value": 3.8, "unit": "fold"},
      {"measurement": "induction of Caspase-8 mRNA level", "setting": "Caspase-8 mRNA; MCF-7, IC50 concentration", "value": 4.2, "unit": "fold"},
      {"measurement": "induction of Caspase-8 mRNA level", "setting": "Caspase-8 mRNA; PC-3, IC50 concentration", "value": 5.4, "unit": "fold"},
      {"measurement": "increase of Bax mRNA level", "setting": "Bax mRNA; A549, IC50 concentration", "value": 4.8, "unit": "fold"},
      {"measurement": "increase of Bax mRNA level", "setting": "Bax mRNA; MCF-7, IC50 concentration", "value": 4.1, "unit": "fold"},
      {"measurement": "increase of Bax mRNA level", "setting": "Bax mRNA; PC-3, IC50 concentration", "value": 4.3, "unit": "fold"},
      {"measurement": "induction of Caspase-9 mRNA level", "setting": "Caspase-9 mRNA; A549, IC50 concentration", "value": 3.7, "unit": "fold"},
      {"measurement": "induction of Caspase-9 mRNA level", "setting": "Caspase-9 mRNA; MCF-7, IC50 concentration", "value": 4.4, "unit": "fold"},
      {"measurement": "induction of Caspase-9 mRNA level", "setting": "Caspase-9 mRNA; PC-3, IC50 concentration", "value": 3.6, "unit": "fold"},
      {"measurement": "reduction of Bcl-2 mRNA level", "setting": "Bcl-2 mRNA; A549, IC50 concentration", "value": 3.3, "unit": "fold"},
      {"measurement": "reduction of Bcl-2 mRNA level", "setting": "Bcl-2 mRNA; MCF-7, IC50 concentration", "value": 3.4, "unit": "fold"},
      {"measurement": "reduction of Bcl-2 mRNA level", "setting": "Bcl-2 mRNA; PC-3, IC50 concentration", "value": 4.3, "unit": "fold"},
      {"measurement": "IC50", "setting": "PC-3 cells; Homo sapiens, PC-3, XTT assay, exposure time of the IC50 not stated (24, 48, 72 h tested), read-out: IC50, prostate cancer (PC-3)", "value": "16.9 ± 1.6", "unit": "µM"},
      {"measurement": "viability at 0.1 µM", "setting": "PC-3 cells; Homo sapiens, PC-3, 0.1 μM, read-out: cell viability", "value": 83, "unit": "%"},
      {"measurement": "viability at 1 µM", "setting": "PC-3 cells; Homo sapiens, PC-3, 1 μM, read-out: cell viability", "value": 71, "unit": "%"},
      {"measurement": "viability at 10 µM", "setting": "PC-3 cells; Homo sapiens, PC-3, 10 μM, read-out: cell viability", "value": 22, "unit": "%"},
      {"measurement": "viability at 50 µM", "setting": "PC-3 cells; Homo sapiens, PC-3, 50 μM, read-out: cell viability", "value": 18, "unit": "%"},
      {"measurement": "viability at 100 µM", "setting": "PC-3 cells; Homo sapiens, PC-3, 100 μM, read-out: cell viability", "value": 12, "unit": "%"},
      {"measurement": "Selectivity index (SI), prostate cancer (PC-3)", "setting": "PC-3 cells; versus normal cells HEK-293", "value": 3.21},
      {"measurement": "downregulation of EGFRWT mRNA", "setting": "EGFRWT mRNA; A549, 72 h", "value": 4.6, "unit": "fold"},
      {"measurement": "downregulation of EGFRWT mRNA", "setting": "EGFRWT mRNA; MCF-7, 72 h", "value": 3.8, "unit": "fold"},
      {"measurement": "downregulation of EGFRWT mRNA", "setting": "EGFRWT mRNA; PC-3, 72 h", "value": 3.4, "unit": "fold"}
    ]}
  ]
}
